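GI50 is the concentration that inhibits growth by half. At the TGI there is no net growth.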
Assays:
Assay in all cases: NCI anticancer screen, dose series, 384-well format
DU-145 prostate = test system: DU-145 prostate
U251 glioblastoma = test system: U251 glioblastoma
NCI-H23 lung = test system: NCI-H23 lung
PC-3 prostate = test system: PC-3 prostate
786-0 renal = test system: 786-0 renal
RPMI-8226 leukemia = test system: RPMI-8226 leukemia
HCT-15 colon = test system: HCT-15 colon
SN12C renal = test system: SN12C renal
LOX IMVI melanoma = test system: LOX IMVI melanoma
HOP-92 NSCLC = test system: HOP-92 NSCLC
TK-10 renal = test system: TK-10 renal
T-47D breast = test system: T-47D breast
SK-MEL-28 melanoma = test system: SK-MEL-28 melanoma
HL-60(TB) leukemia = test system: HL-60(TB) leukemia
SK-MEL-5 melanoma = test system: SK-MEL-5 melanoma
UO-31 renal = test system: UO-31 renal
SK-OV-3 ovarian = test system: SK-OV-3 ovarian
UACC-62 melanoma = test system: UACC-62 melanoma
MALME-3M melanoma = test system: MALME-3M melanoma
CCRF-CEM leukemia = test system: CCRF-CEM leukemia
HOP-62 NSCLC = test system: HOP-62 NSCLC
UACC-257 melanoma = test system: UACC-257 melanoma
OVCAR-5 ovarian = test system: OVCAR-5 ovarian
M14 melanoma = test system: M14 melanoma
MDA-MB-468 breast = test system: MDA-MB-468 breast
BT-549 breast = test system: BT-549 breast
ACHN renal = test system: ACHN renal
OVCAR-3 ovarian = test system: OVCAR-3 ovarian
RXF 393 renal = test system: RXF 393 renal
SF-539 CNS = test system: SF-539 CNS
NCI-H322M lung = test system: NCI-H322M lung
NCI/ADR-RES ovarian = test system: NCI/ADR-RES ovarian
SW-620 colon = test system: SW-620 colon
COLO 205 colon = test system: COLO 205 colon
SR leukemia = test system: SR leukemia
SF-295 CNS = test system: SF-295 CNS
A498 renal = test system: A498 renal
HCC-2998 colon = test system: HCC-2998 colon
MCF7 breast = test system: MCF7 breast
SK-MEL-2 melanoma = test system: SK-MEL-2 melanoma
CAKI-1 renal = test system: CAKI-1 renal
NCI-H522 lung = test system: NCI-H522 lung
A549 NSCLC = test system: A549 NSCLC
NCI-H460 NSCLC = test system: NCI-H460 NSCLC
HT29 colon = test system: HT29 colon
IGROV1 ovarian = test system: IGROV1 ovarian
K-562 leukemia = test system: K-562 leukemia
SNB-19 CNS = test system: SNB-19 CNS
NCI-H226 lung = test system: NCI-H226 lung
OVCAR-8 ovarian = test system: OVCAR-8 ovarian
SF-268 CNS = test system: SF-268 CNS
MOLT-4 leukemia = test system: MOLT-4 leukemia
MDA-MB-231 breast = test system: MDA-MB-231 breast
HCT-116 colon = test system: HCT-116 colon
OVCAR-4 ovarian = test system: OVCAR-4 ovarian
KM12 colon = test system: KM12 colon
MDA-MB-435 melanoma = test system: MDA-MB-435 melanoma

COc1cccc2c1C(=O)c1c(O)c3c(c(O)c1C2=O)C[C@@](O)(/C(CO)=N/NC(=O)CCCCCN1C(=O)C=CC1=O)C[C@@H]3O[C@H]1C[C@H](N)[C@H](O)[C@H](C)O1
GI50 (DU-145 prostate): 152 nM | TGI (DU-145 prostate): 365 nM | GI50 (U251 glioblastoma): 50.4 nM | TGI (U251 glioblastoma): 188 nM | GI50 (NCI-H23 lung): 166 nM | TGI (NCI-H23 lung): 381 nM | GI50 (PC-3 prostate): 407 nM | TGI (PC-3 prostate): 1940 nM | GI50 ([…]-0 renal): 110 nM | TGI (786-0 renal): 368 nM | TGI (RPMI-8226 leukemia): 173 nM | GI50 (HCT-15 colon): 470 nM | TGI (HCT-15 colon): 3.11 µM | GI50 (SN12C renal): 139 nM | TGI (SN12C renal): 391 nM | GI50 (LOX IMVI melanoma): 166 nM | TGI (LOX IMVI melanoma): 381 nM | GI50 (HOP-92 NSCLC): 37 nM | TGI (HOP-92 NSCLC): 247 nM | GI50 (TK-10 renal): 225 nM | TGI (TK-10 renal): 1040 nM | GI50 (T-47D breast): 61.5 nM | TGI (T-47D breast): 280 nM | GI50 (SK-MEL-28 melanoma): 126 nM | TGI (SK-MEL-28 melanoma): 519 nM | GI50 (HL-60(TB) leukemia): 15.1 nM | TGI (HL-60(TB) leukemia): 29.4 nM | GI50 (SK-MEL-5 melanoma): 124 nM | TGI (SK-MEL-5 melanoma): 328 nM | GI50 (UO-31 renal): 1260 nM | TGI (UO-31 renal): 3.13 µM | GI50 (SK-OV-3 ovarian): 138 nM | TGI (SK-OV-3 ovarian): 339 nM | GI50 (UACC-62 melanoma): 75.9 nM | TGI (UACC-62 melanoma): 233 nM | GI50 (MALME-3M melanoma): 152 nM | TGI (MALME-3M melanoma): 403 nM | GI50 (CCRF-CEM leukemia): 15.3 nM | TGI (CCRF-CEM leukemia): 34 nM | GI50 (HOP-62 NSCLC): 103 nM | TGI (HOP-62 NSCLC): 273 nM | GI50 (UACC-257 melanoma): 180 nM | TGI (UACC-257 melanoma): 552 nM | GI50 (OVCAR-5 ovarian): 522 nM | TGI (OVCAR-5 ovarian): 3000 nM | GI50 (M14 melanoma): 72.6 nM | TGI (M14 melanoma): 258 nM | GI50 (MDA-MB-468 breast): 44.8 nM | TGI (MDA-MB-468 breast): 169 nM | GI50 (BT-549 breast): 59.9 nM | TGI (BT-549 breast): 271 nM | GI50 (ACHN renal): 258 nM | TGI (ACHN renal): 1360 nM | GI50 (OVCAR-3 ovarian): 159 nM | TGI (OVCAR-3 ovarian): 686 nM | GI50 (RXF 393 renal): 45.2 nM | TGI (RXF 393 renal): 228 nM | GI50 (SF-539 CNS): 38.7 nM | TGI (SF-539 CNS): 140 nM | GI50 (NCI-H322M lung): 917 nM | TGI (NCI-H322M lung): 2680 nM | GI50 (NCI/ADR-RES ovarian): 12.3 µM | TGI (NCI/ADR-RES ovarian): 44.9 µM | GI50 (SW-620 colon): 59.3 nM | TGI (SW-620 colon): 829 nM | GI50 (COLO 205 colon): 36.6 nM | TGI (COLO 205 colon): 183 nM | TGI (SR leukemia): 15.7 nM | GI50 (SF-295 CNS): 154 nM | TGI (SF-295 CNS): 470 nM | GI50 (A498 renal): 95.8 nM | TGI (A498 renal): 1440 nM | GI50 (HCC-2998 colon): 123 nM | TGI (HCC-2998 colon): 294 nM | GI50 (MCF7 breast): 93.6 nM | TGI (MCF7 breast): 377 nM | GI50 (SK-MEL-2 melanoma): 101 nM | TGI (SK-MEL-2 melanoma): 229 nM | GI50 (CAKI-1 renal): 155 nM | TGI (CAKI-1 renal): 1060 nM | GI50 (NCI-H522 lung): 29.4 nM | TGI (NCI-H522 lung): 148 nM | GI50 (A549 NSCLC): 98 nM | TGI (A549 NSCLC): 1430 nM | GI50 (NCI-H460 NSCLC): 25.2 nM | TGI (NCI-H460 NSCLC): 136 nM | GI50 (HT29 colon): 148 nM | TGI (HT29 colon): 780 nM | GI50 (IGROV1 ovarian): 346 nM | TGI (IGROV1 ovarian): 2480 nM | GI50 (K-562 leukemia): 114 nM | TGI (K-562 leukemia): 1060 nM | GI50 (SNB-19 CNS): 127 nM | TGI (SNB-19 CNS): 553 nM | GI50 (NCI-H226 lung): 122 nM | TGI (NCI-H226 lung): 288 nM | GI50 (OVCAR-8 ovarian): 141 nM | TGI (OVCAR-8 ovarian): 1310 nM | GI50 (SF-268 CNS): 71.4 nM | TGI (SF-268 CNS): 372 nM | GI50 (MOLT-4 leukemia): 10.9 nM | TGI (MOLT-4 leukemia): 23 nM | GI50 (MDA-MB-231 breast): 62.5 nM | TGI (MDA-MB-231 breast): 206 nM | GI50 (HCT-116 colon): 74.9 nM | TGI (HCT-116 colon): 626 nM | GI50 (OVCAR-4 ovarian): 243 nM | TGI (OVCAR-4 ovarian): 716 nM | GI50 (KM12 colon): 116 nM | TGI (KM12 colon): 295 nM | GI50 (MDA-MB-435 melanoma): 268 nM | TGI (MDA-MB-435 melanoma): 1480 nM
